This passage reports LC retention time results from the RepoRT retention time repository (doi:10.1021/acs.analchem.2c02893).

The nature of this data set: RP, Thermo Scientific Acclaim RSLC 120 C18, 100 × 2.1 mm, 2.2 µm, 30 °C, 0.2 mL/min, estimated dead time 1.1 min; A: 90% water + 10% methanol + 0.01% formic acid + 5 mM ammonium formate, pH 3.61; B: methanol + 0.01% formic acid + 5 mM ammonium formate, pH 3.61; gradient (min/%B) 0/1 1/1 2/39 13/99.9 15/99.9 15.1/1 20.1/1. The following applies: stereoisomer not certain.

In the case of `Cc1onc(-c2ccccc2)c1C(=O)NC1C(=O)N2C1SC(C)(C)C2C(=O)O` (stereo not given) [Oxacillin], the LC retention time was 6.9 min.
With `C#CCOc1cc(-n2nc(C(C)(C)C)oc2=O)c(Cl)cc1Cl` [Oxadiargyl], the LC retention time is 11.2 min.
Next, `CC(C)Oc1cc(-n2nc(C(C)(C)C)oc2=O)c(Cl)cc1Cl` [Oxadiazon]: 12.3 min; `COCC(=O)N(c1c(C)cccc1C)N1CCOC1=O` [Oxadixyl]: 6.29 min.
Next, `CNC(=O)ON=C(SC)C(=O)N(C)C` [Oxamyl]: 3.77 min; `Cc1cc(C)nc(NC(=O)NS(=O)(=O)c2ccccc2C(=O)OC2COC2)n1` [Oxasulfuron]: 6.52 min.
Next, `O=c1[nH]c2ccccc2n1CCCN1CCN(C(c2ccccc2)c2ccccc2)CC1` [Oxatomide]: 8.42 min; `O=C1Nc2ccc(Cl)cc2C(c2ccccc2)=NC1O` (stereo not given) [Oxazepam]: 8.43 min; `NC(=O)N1c2ccccc2CC(=O)c2ccccc21` [Oxcarbazepine]: 6.46 min.
In the case of `CCN(CC)CCOCCOC(=O)C(CC)(CC)c1ccccc1` [Oxeladin], the LC retention time was 8.04 min.
Next, `CN(C(=O)CN(CCO)CC(=O)N(C)C(C)(C)Cc1ccccc1)C(C)(C)Cc1ccccc1` [Oxetacaine]: 10.9 min.
Next, `CC[N+]1(C)C2CC(OC(=O)C(CO)c3ccccc3)CC1C1OC12` (stereo not given) [Oxitropium]: 3.87 min.
Next, `CCCc1nn(C)c2c(=O)[nH]c(-c3cc(C(=O)CN4CCN(CC)C(=O)C4)ccc3OCC)nc12` [Oxohongdenafil]: 9.09 min.
Consider `CCn1cc(C(=O)O)c(=O)c2cc3c(cc21)OCO3` [Oxolinic acid], for which the LC retention time is 6.03 min.
As for `CC(CN(C)C)CN1c2ccccc2S(=O)(=O)c2ccccc21` (stereo not given) [Oxomemazine], the figure is 5.34 min.
Next, `C=CCOc1ccccc1OCC(O)CNC(C)C` (stereo not given) [Oxprenolol]: 5.66 min; `CCCCOc1cc(C(=O)OCCN(CC)CC)ccc1N` [Oxybuprocaine]: 5.94 min.
With `CCN(CC)CC#CCOC(=O)C(O)(c1ccccc1)C1CCCCC1` (stereo not given) [Oxybutynin], the LC retention time is 8.92 min.
Next, `COc1ccc2c3c1OC1C(=O)CCC4(O)C(C2)NCCC314` (stereo not given) [Oxycodone-Nor]: 3.71 min.
As for `COc1ccc2c3c1OC1C(=O)CCC4(O)C(C2)N(C)CCC314` (stereo not given) [Oxycodone], the figure is 3.61 min.
For the compound `COc1cccc(C(=O)CCNC(C)C(O)c2ccccc2)c1` (stereo not given) [Oxyfedrine], the LC retention time was 6.14 min.
Take `CCOc1cc(Oc2ccc(C(F)(F)F)cc2Cl)ccc1[N+](=O)[O-]` [Oxyfluorfen]: the LC retention time is 12.1 min.
Next, `Cc1cc(C(C)(C)C)c(O)c(C)c1CC1=NCCN1` [Oxymetazoline]: 6.99 min.
Take `CN1CCC23c4c5ccc(O)c4OC2C(=O)CCC3(O)C1C5` (stereo not given) [Oxymorphone]: the LC retention time is 2.75 min.
As for `OCCN1CCN(CCCN2c3ccccc3Sc3cccnc32)CC1` [Oxypendyl], the figure is 7.57 min.
As for `COc1cc2[nH]c(C)c(CCN3CCN(c4ccccc4)CC3)c2cc1OC` [Oxypertine], the figure is 5.76 min; as for `CN1CCCN=C1COC(=O)C(O)(c1ccccc1)C1CCCCC1` (stereo not given) [Oxyphencyclimine], 7.98 min.
Next, `CN(C)C1C(=O)C(C(N)=O)=C(O)C2(O)C(=O)C3=C(O)c4c(O)cccc4C(C)(O)C3C(O)C12` (stereo not given) [Oxytetracycline]: 4.6 min; `O=C(Oc1cccc2cccnc12)c1cn(CCCCCF)c2ccccc12` [PB-22-5F]: 10.7 min.
Consider `CCCCCn1cc(C(=O)Oc2cccc3cccnc23)c2ccccc21` [PB-22], for which the LC retention time was 11.9 min.
For the compound `O=C(Nc1cccc2ccccc12)c1cn(CCCCCF)c2ccncc12` [PCN-5F], the LC retention time was 11.8 min.
For the compound `COc1ccc(CC(C)N)cc1` (stereo not given) [PMA], the LC retention time is 4.34 min.
On to `CC(C(=O)c1ccccc1)N1CCCC1` (stereo not drawn) [PPP- alpha], for which the LC retention time was 4.01 min.
With `CCCC(C(=O)c1ccccc1)N1CCCC1` (stereo not drawn) [PVP- Alpha], the LC retention time is 5.08 min.
In the case of `O=C1OC(=O)c2ccccc21` [PX-1], the LC retention time was 9.58 min.
`CC(C)(C)C(O)C(Cc1ccc(Cl)cc1)n1cncn1` (stereo not given) [Paclobutrazole]: the LC retention time is 9.49 min.
With `COc1ccnc(CS(=O)c2nc3ccc(OC(F)F)cc3[nH]2)c1OC` (stereo not given) [Pantoprazole], the LC retention time is 7.46 min.
Next, `CC1CC2C3CC(F)C4=CC(=O)C=CC4(C)C3C(O)CC2(C)C1(O)C(=O)CO` (stereo not given) [Paramethasone]: 8.69 min; `COP(=O)(OC)Oc1ccc([N+](=O)[O-])cc1` [Paraoxon-methyl]: 6.36 min.
Regarding `CCOP(=O)(OCC)Oc1ccc([N+](=O)[O-])cc1` [Paraoxon], the LC retention time was 8.01 min.
For `COP(=S)(OC)Oc1ccc([N+](=O)[O-])cc1` [Parathion-methyl], the LC retention time is 9.24 min.
Turning to `CCOP(=S)(OCC)Oc1ccc([N+](=O)[O-])cc1` [Parathion], the LC retention time is 10.7 min.
For `Fc1ccc(C2CCNCC2COc2ccc3c(c2)OCO3)cc1` (stereo not given) [Paroxetine], the LC retention time was 7.87 min.
`CCCCN(CC)C(=O)SCCC` [Pebulate]: the LC retention time was 11.5 min.
For the compound `N=C1NC(=O)C(c2ccccc2)O1` (stereo not given) [Pemoline], the LC retention time is 4.34 min.
As to `CC(C)(C)NCC(O)COc1ccccc1C1CCCC1` (stereo not given) [Penbutolol], the LC retention time was 9.01 min.
Turning to `Nc1nc2c(ncn2CCC(CO)CO)c(=O)[nH]1` [Penciclovir], the LC retention time was 2.98 min.
With `CCCC(Cn1cncn1)c1ccc(Cl)cc1Cl` (stereo not given) [Penconazole], the LC retention time was 10.8 min.
Next, `O=C(Nc1ccccc1)N(Cc1ccc(Cl)cc1)C1CCCC1` [Pencycuron]: 11.4 min; `CCC(CC)Nc1c([N+](=O)[O-])cc(C)c(C)c1[N+](=O)[O-]` [Pendimethalin]: 12.8 min; `OC1(c2ccc(Cl)c(C(F)(F)F)c2)CCN(CCCC(c2ccc(F)cc2)c2ccc(F)cc2)CC1` [Penfluridol]: 10.1 min.
As for `O=C(NC(=O)c1c(F)cccc1F)Nc1ccc(C(F)(F)F)cc1` [Penfluron], the figure is 10.9 min.
As for `CC1(C)SC2C(NC(=O)COc3ccccc3)C(=O)N2C1C(=O)O` (stereo not given) [Penicillin V], the figure is 6.8 min; as for `CCCC(C)C(=O)Nc1ccc(C)c(Cl)c1` (stereo not given) [Pentanochlor], 10.6 min; as for `CC(C)=CCN1CCC2(C)c3cc(O)ccc3CC1C2C` (stereo not given) [Pentazocine], 5.46 min.
For `CCCC(NC)C(=O)c1ccccc1` (stereo not given) [Pentedrone], the LC retention time is 4.89 min.
`CCCCCCn1c(=O)c2c(ncn2C)n(C)c1=O` [Pentifylline]: the LC retention time is 9.44 min.
As for `CC(=O)CCCCn1c(=O)c2c(ncn2C)n(C)c1=O` [Pentoxifylline], the figure is 5.23 min; as for `CCN(CC)CCOCCOC(=O)C1(c2ccccc2)CCCC1` [Pentoxyverine], 7.87 min.
Next, `CCCC(NC)C(=O)c1ccc2c(c1)OCO2` (stereo not given) [Pentylone]: 4.99 min; `CN1CCN(CCCN2c3ccccc3Sc3ccccc32)CC1` [Perazine]: 8.8 min; `CCCN1CC(CSC)CC2c3cccc4[nH]cc(c34)CC21` (stereo not given) [Pergolide]: 6.19 min.
Next, `N#Cc1ccc2c(c1)N(CCCN1CCC(O)CC1)c1ccccc1S2` [Periciazine]: 7.45 min; `CCCC(NC(C)C(=O)N1C(C(=O)O)CC2CCCCC21)C(=O)OCC` (stereo not given) [Perindopril]: 13.2 min.
As for `CC1(C)C(C=C(Cl)Cl)C1C(=O)OCc1cccc(Oc2ccccc2)c1` (stereo not given) [Permethrin], the LC retention time is 13.9 min.
As for `OCCN1CCN(CCCN2c3ccccc3Sc3ccc(Cl)cc32)CC1` [Perphenazine], the figure is 9.55 min; as for `CCOCCN(C(=O)CCl)C(=C(C)C)c1ccccc1` [Pethoxamide], 10.1 min.
Regarding `O=C1Nc2ccc(Br)cc2C(c2ccccc2Cl)=NC1O` (stereo not given) [Phenazepam- 3-Hydroxy], the LC retention time is 8.34 min.
Next, `O=C1CN=C(c2ccccc2Cl)c2cc(Br)ccc2N1` [Phenazepam]: 8.93 min; `CC1C2Cc3ccc(O)cc3C1(C)CCN2CCc1ccccc1` (stereo not given) [Phenazocine]: 6.08 min; `Cc1cc(=O)n(-c2ccccc2)n1C` [Phenazone]: 4.63 min.
In the case of `Nc1ccc(N=Nc2ccccc2)c(N)n1` [Phenazopyridine], the LC retention time is 8.49 min.
As for `c1ccc(C2(N3CCCCC3)CCCCC2)cc1` [Phencyclidine], the figure is 5.74 min; as for `CC1C(c2ccccc2)OCCN1C` (stereo not given) [Phendimetrazine], 4.06 min; as for `NNCCc1ccccc1` [Phenelzine], 3.71 min.
As for `NCCc1ccccc1` [Phenethylamine (2-)], the figure is 3.57 min.
Regarding `NC(N)=NC(N)=NCCc1ccccc1` [Phenformin], the LC retention time was 4.38 min.
As to `C[N+](C)([O-])CCC(c1ccccc1)c1ccccn1` (stereo not given) [Pheniramine N-Oxide], the LC retention time is 5.39 min.
Regarding `CN(C)CCC(c1ccccc1)c1ccccn1` (stereo not given) [Pheniramine], the LC retention time is 4.98 min.
As for `COC(=O)Nc1cccc(OC(=O)Nc2cccc(C)c2)c1` [Phenmedipham], the LC retention time was 8.75 min.
